Measurements from US9320271B2, “Microbial composition” (Rohm and Haas Company, priority 2011, dated 2016).
Where “and” joins values, the source holds several entries; their conditions need not be identical. Equal entries are not always repeated.

Assays:
[1] = tested on: Escherichia coli (E. coli—ATCC #10536); experiment: Automated assessment of efficacy in surfactant base (2.85% sodium cocoyl glycinate and 1.85% sodium lauroamphoacetate, pH 10.0), 15 seconds exposure; assay type: cell-based; conditions: for MBC (minimum biocidal concentration): in 2.85% sodium cocoyl glycinate + 1.85% sodium lauroamphoacetate solution at pH 10, E. coli; for No. of replicates showing growth (out of 4) / Δ OD 450 nm = OD450 (time = 16 hours) − OD450 (time zero), Mean / Δ OD 590 nm OD590 (time = 16 hours) − OD590 (time zero), Mean: alone, model surfactant solution
Procedure: Test Methodology for Automated Assessment of Efficacy in Surfactant Base Microbiocidal Activity of Actives as Per the Invention in a Model Surfactant Medium Test Methodology for Automated Assessment of Efficacy in Surfactant Base In these examples, the efficacy of combinations of actives were tested in a surfactant cleansing formulation comprising 2.85% sodium cocoyl glycinate and 1.85% sodium lauroamphoacetate. This corresponds to a 50% in use dilution with water of a neat formulation containing 5.7% cocoyl glycinate and […] % sodium, lauroamphoacetate during hand washing. Solutions were prepared such that the concentrations of the surfactant components and test actives were 1.1× the final desired concentration in order to allow for dilution with the bacterial inoculum in the test. The solutions were manually adjusted to pH 10.0 by dropwise addition of sodium hydroxide solution, as measured with a pH meter at ambient temperature. The efficacy of the combinations of the present invention was determined against Escherichia coli (E. coli—ATCC #10536), at a concentration of approximately 1×10^8 bacteria per mL. Tests were conducted using standard microtiter plate assays using an automated liquid handling system. 270 μl of the surfactant test solution was pipetted into each well of the microtitre plate and 30 μl of the bacterial suspension was then added. Alter exactly 15 seconds of bacterial exposure, a 30 μl volume of bacterial cells was withdrawn and transferred to 270 μl of D/E quench solution. After 5 minutes in the D/E quench, the optical density (OD) was measured for each plate in turn at two specific wavelengths (450 nm and 590 nm). These provide a dual check of antimicrobial activity, as the OD450 reading is specific for the yellow colour of D/E quench when bacterial growth is observed, whereas OD590 is specific for the initial purple colour of the D/E quench which is retained if no bacterial growth is observed. After the time zero OD measurements, plates were then incubated at 37° C. overnight (16 hours) before repeating the OD measurements. Delta OD values were calculated by subtracting […]. Bacterial growth is observed as an increase in OD450 and a decrease in ΔOD590. To identify antibacterially efficacious systems (those preventing appreciable bacterial growth after incubation), the following threshold changes in OD readings have been adopted: if (1). OD450 increases by less than 0.2 absorbance unit on incubation and (2). OD590 decreases by less than 0.35 unit on incubation. Conversely, where OD450 increases by more than 0.2 AU and OD590 decreases by more than 0.35 unit after incubation, corresponding to a colour shift from purple to yellow, the test system allows bacterial growth and is not deemed efficacious. Four replicate measurements in the same plate have been made for each test system. The number of replicate wells showing either bacterial growth or no growth is also readily assessed by eye by following the colour change. Dose responses for individual components and binary mixtures of actives at a fixed concentration ratio were generated by sequential dilution of liquors with further surfactant solution to obtain a series of endpoints. […] In some selected cases, the combinations were also tested at the weight ratio 1:1.

[2] = tested on: Escherichia coli (E. coli—ATCC #10536); experiment: Synergy test: high resolution MBC microtiter plate assay, phosphate buffer containing 35% dipropylene glycol, 15 seconds contact; assay type: cell-based; conditions: E. coli 10536; for SI (Synergy Index): at Qa and Qb, less than one = synergy; for MBC of the component acting alone (QA / QB; Qa or Qb where the other component is 0): complete kill in 15 seconds
Text: The concentrations and ratios may also vary under different test conditions or with different test methods.
One measure of synergy is the industrially accepted method described by Kull, F. C.; Eisman, P. C.; Sylwestrowicz, H. D, and Mayer, R. L., in Applied Microbiology 9:538-541 (1961), using the ratio determined by the formula: […]=Synergy Index (“SI”) wherein; QA=concentration of compound A (first component) in percent, acting alone, which produced an end point (MBC of Compound A). Qa=concentration of compound A in percent, in the mixture, which produced an end point. QB=concentration of compound B (second component) in percent, acting alone, which, produced an end point (MBC of Compound B). Qb=concentration of compound B in percent, in the mixture, which produced an end point.
When the sum of Qa/QA and Qb/QB is greater than one, antagonism is indicated. […] The lower the SI, the greater is the synergy shown by that particular mixture. The minimum biocidal concentration (MBC) of a microbicide is the lowest concentration tested under a specific set of conditions that provides complete kill of the tested microorganisms.
Synergy tests were conducted using standard microliter plate assays with phosphate buffer containing 35% dipropylene glycol (DPG). In this method, a wide range of combinations of chemicals was tested by conducting high resolution MBC assays of Component (A) in the presence of various concentrations of Component (B). High resolution MBCs were determined by adding varying amounts of microbicide to one column of a microliter plate and doing subsequent […] dilutions using an automated liquid handling, system to obtain a series of closely spaced endpoints. The MBC plate was inoculated one column at a time with the test microorganism. An aliquot of the inoculated well was transferred at 15 seconds to a plate containing a neutralizing agent (D/E Neutralizing Broth), mixed and held for 5 minutes before being transferred to a growth plate containing trypticase soy broth (TSB). The TSB plate was incubated at 37° C. and read for the presence/absence of growth at 24 hours. The lowest level tested that provided complete kill (as evidenced by no growth in the microtitre plate) of the test organisms in 15 seconds is the minimum biocidal concentration (MBC).
The synergy of the combinations of the present invention was determined against a bacterium, Escherichia coli (E. coli—ATCC #10536), at a concentration of approximately 1×10^8 it bacteria per mL. This microorganism is representative of natural contaminants in many consumer and industrial applications.

| Compound | MBC (minimum biocidal concentration) [1] [% w/v] | SI (Synergy Index) [2] | MBC of the component acting alone (QA / QB; Qa or Qb where the other component is 0) [2] | No. of replicates showing growth (out of 4) ([1]; 0.1% w/v) | Δ OD 450 nm = OD450 (time = 16 hours) − OD450 (time zero), Mean ([1]; 0.1% w/v) | Δ OD 590 nm OD590 (time = 16 hours) − OD590 (time zero), Mean ([1]; 0.1% w/v) | No. of replicates showing growth (out of 4) ([1]; 0.2% w/v) | Δ OD 450 nm = OD450 (time = 16 hours) − OD450 (time zero), Mean ([1]; 0.2% w/v) | Δ OD 590 nm OD590 (time = 16 hours) − OD590 (time zero), Mean ([1]; 0.2% w/v) | No. of replicates showing growth (out of 4) ([1]; […] w/v) | Δ OD 450 nm = OD450 (time = 16 hours) − OD450 (time zero), Mean ([1]; […] w/v) | Δ OD 590 nm OD590 (time = 16 hours) − OD590 (time zero), Mean ([1]; […] w/v) | also measured |
| --- | --- | --- | --- | --- | --- | --- | --- | --- | --- | --- | --- | --- | --- |
| CC1=CC(C)C(CO)C(C)C1 (centres unmarked) [2,4,6-trimethyl-3-cyclohexene-1-methanol] | 0.4 | 1.00 | 0.6 weight % and 1 weight % and 0.8 weight % and 0.3 weight % |  |  |  |  |  |  |  |  |  |  |
| CC1=CCC(C(C)CO)CC1 (centres unmarked) [2-(4-methylcyclohex-3-enyl)propan-1-ol] |  | 1.00 | 0.3 weight % and 0.25 weight % |  |  |  |  |  |  |  |  |  | MBC of the component acting alone (QA / QB; Qa or Qb where the other component is 0) ([2]; listed as 2-(4-methylcylohex-3-enyl)propan-1-ol): 0.25 weight % |
| Oc1ccccc1C1CCCC1 [2-cyclopentylphenol] | >0.2 | 1.00 | 0.3 weight % and 0.5 weight % | 4 | −0.57 | 0.56 | 4 | −0.52 | 0.61 | 4 | −0.56 | 0.54 |  |
| Oc1ccccc1Cc1ccccc1 [2-hydroxydiphenylmethane] | >0.2 | 1.00 | 0.8 weight % and 0.5 weight % and 0.6 weight % | 4 | −0.51 | 0.62 | 4 | −0.51 | 0.63 | 4 | −0.49 | 0.64 |  |
| Cc1cc(O)c(C(C)C)cc1Cl [4-chloro-2-isopropyl-5-methylphenol, reference compound] | >0.2 |  |  |  |  |  |  |  |  |  |  |  |  |
| Cc1cc(O)cc(C)c1Cl [4-chloro-3,5-dimethylphenol] | >0.2 | 1.00 | 0.6 weight % and 1.0 weight % and 0.5 weight % | 4 | −0.49 | 0.63 | 4 | −0.50 | 0.62 | 4 | −0.47 | 0.63 |  |
| Oc1ccc(C2CCCC2)cc1 [4-cyclopentylphenol] | >0.2 | 1.00 | 0.3 weight % and 0.5 weight % and 0.2 weight % |  |  |  | 4 | −0.40 | 0.70 | 4 | −0.45 | 0.65 | No. of replicates showing growth (out of 4) ([1]; 0.125% w/v): 4; Δ OD 450 nm = OD450 (time = 16 hours) − OD450 (time zero), Mean ([1]; 0.125% w/v): −0.49; Δ OD 590 nm OD590 (time = 16 hours) − OD590 (time zero), Mean ([1]; 0.125% w/v): 0.62 |
| Oc1ccc(Cc2ccccc2)cc1 [4-hydroxydiphenylmethane] | >0.2 | 1.00 | 0.8 weight % and 0.6 weight % | 4 | −0.58 | 0.52 | 4 | −0.52 | 0.61 | 4 | −0.55 | 0.54 |  |
| CC(C)(C)c1ccc(O)c(O)c1 [4-tert-butylbenzene-1,2-diol] | >0.2 | 1.00 | 1.00 weight % and 1.0 weight % |  |  |  | 4 | −1.66 | 0.17 | 4 | −1.63 | 0.20 | No. of replicates showing growth (out of 4) ([1]; 0.125% w/v): 4; Δ OD 450 nm = OD450 (time = 16 hours) − OD450 (time zero), Mean ([1]; 0.125% w/v): −1.63; Δ OD 590 nm OD590 (time = 16 hours) − OD590 (time zero), Mean ([1]; 0.125% w/v): 0.22 |
| Oc1cccc2c1CCCC2 [5,6,7,8-tetrahydronaphthalen-1-ol] | >0.2 | 1.00 | 0.6 weight % | 4 | −0.57 | 0.56 | 4 | −0.47 | 0.65 | 4 | −0.52 | 0.58 |  |
| C=C(C)[C@@H]1CC=C(CO)CC1 [(S)-(−) perillyl alcohol] |  |  |  |  |  |  | 4 | −1.49 | 0.29 |  |  |  | No. of replicates showing growth (out of 4) ([1]; 0.5% w/v): 0; Δ OD 450 nm = OD450 (time = 16 hours) − OD450 (time zero), Mean ([1]; 0.5% w/v): −0.04; Δ OD 590 nm OD590 (time = 16 hours) − OD590 (time zero), Mean ([1]; 0.5% w/v): 0.07 |
| CC1=CC(C)C(CO)C(C)C1 (centres unmarked) [Isocyclo-Geraniol] |  |  |  |  |  |  | 4 | −1.50 | 0.29 | 4 |  |  | No. of replicates showing growth (out of 4) ([1]; 0.4% w/v): 0; Δ OD 450 nm = OD450 (time = 16 hours) − OD450 (time zero), Mean ([1]; 0.4% w/v): −0.06; Δ OD 590 nm OD590 (time = 16 hours) − OD590 (time zero), Mean ([1]; 0.4% w/v): 0.09 |
